Measured values: PubChem BioAssay AID2060904 (Molecular Pharmacology Branch, DTP, NCI, 2025)
Values belong to the compound of their own block, whether it stands above or below them.

System: 349418-098-R-PDC complex spheroid viability
Test: Anticancer human tumor 349418-098-R-PDC patient-derived lung adenocarcinoma cell line growth inhibition [RAS]
Details: for IC50: curve of first compound; for viability, T/C: stronger effect = lower value
Excerpt: RAS pathway inhibitors in Combinations in Complex Spheroids
A high-throughput screen of multi-cell type tumor spheroids was designed to identify active combinations of RAS pathway inhibitors and targeted small molecules. Complex spheroids include a stromal component modeled by human endothelial cells (HUVEC) and fibroblasts modeled by human mesenchymal stem cells (MSCs). The concentration ranges selected for each drug and investigational agent were based upon clinically achievable concentrations if the clinical Cmax of the agent was known.
Compounds. The drugs and investigational agents: abemaciclib (NSC768073), cobimetinib (NSC768068), divarasib (GDC6063, NSC841802), docetaxel (NSC628503), GDC-1971 (RLY-1971, NSC841576), gemcitabine (NSC613327), inavolisib (NSC800729), ipatasertib (NSC767898), KB-0742 (NSC834161), MRTX-1133 (NSC836407), osimertinib (NSC779217), RMC-4630 (NSC839698), RMC-6236 (NSC851965), RMC-6291 (NSC852671), Ro-3306 (NSC812927), sapanisertib (NSC764658), SN-38 (NSC673596), staurosporine (NSC755774), SY5609 (NSC837396), and tovorafenib (DAY101, NSC766906), were obtained from the National Cancer Institute (NCI) Developmental Therapeutics Program Chemical Repository. The FDA-approved anticancer drug set is available from the NCI Developmental Therapeutics Program. […] The stock solutions were prepared in dimethyl sulfoxide (DMSO, Sigma-Aldrich, St. Louis, MO, cat. D2650) at 800-fold the tested concentration and stored at -70 degrees C prior to their use. All drugs and investigational agents were tested over a range starting from a high concentration at or near the clinical Cmax and decreasing in half-log increments. If the clinical Cmax for an agent had not been determined, the highest concentration tested was 10 microM.
Cell Culture. All cells were maintained in an incubator at 37 degrees C and 5% CO2 with 95% humidity. The PDC lines were cultured according to standard operating procedures established by the NCI PDMR. All PDCs were thawed and cultured in Matrigel-coated flasks prepared with a working solution of 1X Ham's F-12 nutrient mix, without supplementation (Invitrogen, Waltham, MA, cat. 11765054), 100 U/mL penicillin-streptomycin (Invitrogen, cat. 15140122), and 2.5% Matrigel (Corning Inc., Corning, NY, cat. 354248) for the first three passages. The 362531-283-R-J2-PDC and 782815-120-R-J1-PDC lines were cultured in 6C/Colon 1B media, which includes advanced DMEM/F-12 (Thermo Fisher Scientific, cat. 12634028), 10 mM HEPES (Thermo Fisher Scientific, cat. 15630080), 1X GlutaMAX supplement (Thermo Fisher Scientific, cat. 35050061), 0.1 mg/mL primocin (InvivoGen, San Diego, CA, cat. ant-pm-2), 10% defined fetal bovine serum, heat inactivated (HyClone Laboratories Inc., Logan, UT, cat. SH30070.03HI), 50% L-WRN conditioned media (ATCC, cat. CRL-3276), 1.25 mM N-Acetyl-L-cysteine (Sigma-Aldrich, cat. A9165), 10 mM nicotinamide (Sigma-Aldrich, cat. N0636), 1X B-27 supplement (Thermo Fisher Scientific, cat. 17504044), 1X N-2 supplement (Thermo Fisher Scientific, cat. 17502048), 50 ng/mL human EGF (Thermo Fisher Scientific, cat. PHG0311), and 10 microM Y-27632 dihydrochloride (Tocris Bioscience, cat. 1254). The K12877-001-R-J1-PDC line was cultured in 6I media, which includes all 6C/Colon 1B media plus 10 ng/mL human FGF-10 (PeproTech, cat. 100-26), 1 ng/mL human FGF-2 (PeproTech, cat. 100-18B), 1 µM prostaglandin E2 (Tocris Bioscience, cat. 2296), […] hydrocortisone (Sigma-Aldrich, cat. H4001), and […] bovine insulin (Sigma-Aldrich, cat. I6634). The K86415-001-R-J1-PDC line was cultured in 6D media, which includes all 6C/Colon 1B media components minus the L-WRN conditioned media. The 485176-168-R4-J1-PDC was cultured in PANC media, which includes all 6C/Colon 1B media plus 100 ng/mL human FGF-10 (PeproTech, cat. 100-26), 500 nM SB-431542 (Selleckchem, cat. S1067), and 10 nM gastrin (Tocris Bioscience, cat. 3006). […]
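Note: spheroids exposed to compound for seven days before viability readout.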

IC50 (second compound 0.0316 µM): < 31.6 nM
IC50 (second compound 0.1 µM): < 31.6 nM
IC50 (second compound 0.316 µM): < 31.6 nM
IC50 (second compound 1 µM): < 31.6 nM
IC50 (second compound 3.16 µM): < 31.6 nM
IC50 (second compound 10 µM): < 31.6 nM
SMILES: CC(=O)OC12COC1CC(O)C1(C)C(=O)C(O)C3=C(C)C(OC(=O)C(O)C(NC(=O)OC(C)(C)C)c4ccccc4)CC(O)(C(OC(=O)c4ccccc4)C21)C3(C)C (centres undefined) + C#Cc1c(F)ccc2cc(O)cc(-c3ncc4c(N5CC6CCC(C5)N6)nc(OCC56CCCN5CC(F)C6)nc4c3F)c12
viability, T/C (second compound 0.0316 µM, first compound 0.0316 µM): 16.5%
viability, T/C (second compound 0.0316 µM, first compound 0.1 µM): 15.4%
viability, T/C (second compound 0.0316 µM, first compound 0.316 µM): 21.2%
viability, T/C (second compound 0.0316 µM, first compound 1 µM): 19.1%
viability, T/C (second compound 0.0316 µM, first compound 3.16 µM): 19.9%
viability, T/C (second compound 0.0316 µM, first compound 10 µM): 22.4%
viability, T/C (second compound 0.1 µM, first compound 0.0316 µM): 16.3%
viability, T/C (second compound 0.1 µM, first compound 0.1 µM): 23.3%
viability, T/C (second compound 0.1 µM, first compound 0.316 µM): 19.9%
viability, T/C (second compound 0.1 µM, first compound 1 µM): 18.4%
viability, T/C (second compound 0.1 µM, first compound 3.16 µM): 24.4%
viability, T/C (second compound 0.1 µM, first compound 10 µM): 27%
viability, T/C (second compound 0.316 µM, first compound 0.0316 µM): 16.1%
viability, T/C (second compound 0.316 µM, first compound 0.1 µM): 19.1%
viability, T/C (second compound 0.316 µM, first compound 0.316 µM): 26%
viability, T/C (second compound 0.316 µM, first compound 1 µM): 21.1%
viability, T/C (second compound 0.316 µM, first compound 3.16 µM): 23.3%
viability, T/C (second compound 0.316 µM, first compound 10 µM): 24.5%
viability, T/C (second compound 1 µM, first compound 0.0316 µM): 16.8%
viability, T/C (second compound 1 µM, first compound 0.1 µM): 16.6%
viability, T/C (second compound 1 µM, first compound 0.316 µM): 21.4%
viability, T/C (second compound 1 µM, first compound 1 µM): 18.2%
viability, T/C (second compound 1 µM, first compound 3.16 µM): 19.1%
viability, T/C (second compound 1 µM, first compound 10 µM): 24.4%
viability, T/C (second compound 3.16 µM, first compound 0.0316 µM): 13.2%
viability, T/C (second compound 3.16 µM, first compound 0.1 µM): 17.9%
viability, T/C (second compound 3.16 µM, first compound 0.316 µM): 17.5%
viability, T/C (second compound 3.16 µM, first compound 1 µM): 24.6%
viability, T/C (second compound 3.16 µM, first compound 3.16 µM): 31.2%
viability, T/C (second compound 3.16 µM, first compound 10 µM): 23.4%
viability, T/C (second compound 10 µM, first compound 0.0316 µM): 7.77%
viability, T/C (second compound 10 µM, first compound 0.1 µM): 5.42%
viability, T/C (second compound 10 µM, first compound 0.316 µM): 9.77%
viability, T/C (second compound 10 µM, first compound 1 µM): 6.32%
viability, T/C (second compound 10 µM, first compound 3.16 µM): 7.62%
viability, T/C (second compound 10 µM, first compound 10 µM): 5.03%

IC50 (second compound 0.0316 µM): 1.41 nM
IC50 (second compound 0.1 µM): 1.76 nM
IC50 (second compound 0.316 µM): 1.76 nM
IC50 (second compound 1 µM): 1.96 nM
IC50 (second compound 3.16 µM): 1.75 nM
IC50 (second compound 10 µM): 1.18 nM
SMILES: CCc1c2c(nc3ccc(O)cc13)-c1cc3c(c(=O)n1C2)COC(=O)[C@]3(O)CC + C#Cc1c(F)ccc2cc(O)cc(-c3ncc4c(N5CC6CCC(C5)N6)nc(OCC56CCCN5CC(F)C6)nc4c3F)c12
viability, T/C (second compound 0.0316 µM, first compound 0.000949 µM): 58.9%
viability, T/C (second compound 0.0316 µM, first compound 0.003 µM): 33.1%
viability, T/C (second compound 0.0316 µM, first compound 0.00949 µM): 10.8%
viability, T/C (second compound 0.0316 µM, first compound 0.03 µM): 4.93%
viability, T/C (second compound 0.0316 µM, first compound 0.0949 µM): 3.89%
viability, T/C (second compound 0.0316 µM, first compound 0.3 µM): 2.53%
viability, T/C (second compound 0.1 µM, first compound 0.000949 µM): 74.7%
viability, T/C (second compound 0.1 µM, first compound 0.003 µM): 28.7%
viability, T/C (second compound 0.1 µM, first compound 0.00949 µM): 10.6%
viability, T/C (second compound 0.1 µM, first compound 0.03 µM): 5.19%
viability, T/C (second compound 0.1 µM, first compound 0.0949 µM): 4.46%
viability, T/C (second compound 0.1 µM, first compound 0.3 µM): 2.82%
viability, T/C (second compound 0.316 µM, first compound 0.000949 µM): 70.9%
viability, T/C (second compound 0.316 µM, first compound 0.003 µM): 32.1%
viability, T/C (second compound 0.316 µM, first compound 0.00949 µM): 8.77%
viability, T/C (second compound 0.316 µM, first compound 0.03 µM): 4.98%
viability, T/C (second compound 0.316 µM, first compound 0.0949 µM): 3.85%
viability, T/C (second compound 0.316 µM, first compound 0.3 µM): 2.45%
viability, T/C (second compound 1 µM, first compound 0.000949 µM): 81%
viability, T/C (second compound 1 µM, first compound 0.003 µM): 32%
viability, T/C (second compound 1 µM, first compound 0.00949 µM): 9.89%
viability, T/C (second compound 1 µM, first compound 0.03 µM): 6.27%
viability, T/C (second compound 1 µM, first compound 0.0949 µM): 4.67%
viability, T/C (second compound 1 µM, first compound 0.3 µM): 2.58%
viability, T/C (second compound 3.16 µM, first compound 0.000949 µM): 65.8%
viability, T/C (second compound 3.16 µM, first compound 0.003 µM): 36.2%
viability, T/C (second compound 3.16 µM, first compound 0.00949 µM): 10.1%
viability, T/C (second compound 3.16 µM, first compound 0.03 µM): 5.33%
viability, T/C (second compound 3.16 µM, first compound 0.0949 µM): 3.62%
viability, T/C (second compound 3.16 µM, first compound 0.3 µM): 2.21%
viability, T/C (second compound 10 µM, first compound 0.000949 µM): 57.9%
viability, T/C (second compound 10 µM, first compound 0.003 µM): 17.1%
viability, T/C (second compound 10 µM, first compound 0.00949 µM): 4.95%
viability, T/C (second compound 10 µM, first compound 0.03 µM): 2.94%
viability, T/C (second compound 10 µM, first compound 0.0949 µM): 1.84%
viability, T/C (second compound 10 µM, first compound 0.3 µM): 0.77%
